This is an account of results in patent US12239654B2, “Compounds and methods for treating neurological and cardiovascular conditions” (Astrocyte Pharmaceuticals, Inc., priority 2016, dated 2025).

Bounds are passed on as bounds.

Data set [1] is described as follows: Previous/initial in vivo pharmacokinetic assessments of MRS2365 in mice.
Data set [2] can be described thus: In vitro stability of MRS2365 in human whole blood. The format is in vitro ADME. To be noted: EDTA-treated human whole blood, read-out: estimated half-life. On the procedure: Whole blood was obtained from male CD-1 mice and human volunteers at Seventh Wave Laboratories (Maryland Heights, MO). Plasma and blood samples were prepared using either EDTA (1 mM) or lithium heparin as anticoagulants.
Blood Stability Determination: MRS2365, enalapril and procaine were solubilized in phosphate-buffered saline, pH 7.4. […] Stability incubations were initiated with the addition of MRS2365 (1 μM final concentration) (FIGS. 5 and 6). Blood sample aliquots were obtained at 0, 1, 2.5, 7.5, 10 and 30 minutes and placed in microtainer tubes. For metabolite scouting analyses, MRS2365 was incubated in heparinized human whole blood at a concentration of 100 μM for 10 or 30 minutes (FIG. 10). In all studies, plasma was immediately prepared by centrifugation at 4° C., placed in microtainer tubes, frozen on dry ice and stored at −80° C. until analysis.
The following table outlines the LC and MS/MS conditions employed (Table 11).
The calibration range for MRS2365 plasma and blood concentration standard curves was 5-5000 ng/mL. Quality control samples were utilized at concentrations of 32, 160, 800 and 4000 ng/mL.

Data set [3] can be described thus: Stability of MRS2365 incubated in phosphate-buffered saline. The format is physicochemical.

The half-life is the time in which the quantity being followed falls by half. Consider `CSc1nc(N)c2ncn([C@H]3[C@H](O)[C@H](O)[C@]4(COP(=O)(O)OP(=O)(O)O)C[C@H]34)c2n1` [MRS2365], for which the “circulating and brain concentrations of MRS2365” value in data set [1] (following intraperitoneal or intravenous administration, previous studies) is “no detectable”. Besides, the clearance in vivo result in data set [1] (mice, heparin as blood anticoagulant for plasma preparation) is listed as “rapidly cleared at a rate approximating cardiac output”. Further, the half-life at 1 μM in data set [2] is greater than 4 h. In addition, the “stability when incubated in phosphate-buffered saline” value in data set [3] was “completely stable”.
